Source: patent publication US9932300B2, “N,N′-diarylurea compounds and N,N′-diarylthiourea compounds as inhibitors of translation initiation” (President and Fellows of Harvard College, priority 2009, dated 2018)
Where “and” joins values, the source holds several entries; their conditions need not be identical. Identical values can stand only once.

System: eIF2-GTP-Met-tRNAi ternary complex
Assay: Ternary complex assay (dual luciferase, firefly/renilla ratio) in stable KLN-tTA/pBISA-DL(ATF-4) cells; HTS and hit confirmation
Type: cell-based, mouse
Set-up: Activity 10 uM / Activity 2.5 uM / Activity 5 uM: unit not given here
Conditions: for Activity 5 uM: compound at 5 uM; for Activity 5 uM / Activity 10 uM / Activity 2.5 uM: confirmed hits of the screen (Table 5); for Activity 10 uM: compound at 10 uM; for Activity 2.5 uM: compound at 2.5 uM

N#Cc1nc2c3ccccc3c(N=NC(N)=S)c-2[nH]c1C#N [Compound 186257]
Activity 5 uM: 49.982 | Activity 10 uM: 59.966

Cc1ccc(NC(=O)c2cc3ccccc3cc2O)c(C)c1.Cc1ccc(NC(=O)c2cc3ccccc3cc2O)c(C)c1.[Mn+2] [Compound 306697]
Activity 2.5 uM: 1.77 | Activity 10 uM: 19.5

CC(=O)Nc1cccc(/C=C/C=C/c2ccc([N+](=O)[O-])cc2)c1 [Compound 161089]
Activity 2.5 uM: 1.67 | Activity 10 uM: 3.53

COc1ccc2c(Cc3ccccc3)c3[n+](cc2c1OC)CCc1cc2c(cc1-3)OCO2.[Br-] [Compound 338631]
Activity 2.5 uM: 1.12 | Activity 10 uM: 3.39

Br.O=C(/C(=C\c1ccccc1)CN1CCOCC1)c1ccc(Br)cc1 [Compound 150311]
Activity 5 uM: 36.67 | Activity 10 uM: 39.7

CC12CC3CC(C)(C1)CC(SCCN=C(N)CCl)(C3)C2.Cl [Compound 193484]
Activity 2.5 uM: 1.24 | Activity 10 uM: 22.72

Cc1cc(C)nc(NC(=S)N/N=C/c2ccccn2)n1 [Compound 185066]
Activity 5 uM: 44.91 | Activity 10 uM: 20.339

O=C(Nc1ccc(Cl)c(C(F)(F)F)c1)Nc1ccc2nnsc2c1 [Compound 1780]
Active or inactive N,N′-diarylurea (ternary complex assay) (designation in figure legend): active

COc1ccc(-c2coc3cc(O)ccc3c2=O)cc1 [Compound 93360]
Activity 5 uM: 11.08 | Activity 10 uM: 10.283

C[C-]=O.[C-]#[O+].[C-]#[O+].[Mn].c1ccc(P(CCP(c2ccccc2)c2ccccc2)CCP(c2ccccc2)c2ccccc2)cc1 [Compound 634842]
Activity 2.5 uM: 1.71 | Activity 10 uM: 8.37

O=C(Nc1ccc(CCO)cc1)Nc1ccccc1F [Compound 214004]
Activity 5 uM: 5.299 | Activity 10 uM: 6.0655

CC1(C)CN=C(NN=C(C=Cc2ccc(C(F)(F)F)cc2)C=Cc2ccc(C(F)(F)F)cc2)NC1 [Compound 379665]
Activity 2.5 uM: 1.08 | Activity 10 uM: 35.03

O=C(NCC(=O)N1CCCC1)N/N=C/c1ccccc1O [Compound 343979]
Activity 5 uM: 2.571 | Activity 10 uM: 3.1255

CN1C/C(=C\c2ccccc2)C(=O)/C(=C/c2ccccc2)C1.Cl [Compound 618767]
Activity 2.5 uM: 0.7 | Activity 10 uM: 6.58

Cc1ccc2nn(-c3ccc(O)cc3)nc2c1 [Compound 106291]
Activity 2.5 uM: 2.7 | Activity 10 uM: 3.15

CCCCCCCC[N+](CCCC)(CCCC)CCCC.O=C([O-])CCl [Compound 12134]
Activity 2.5 uM: 8.83

O=C1C=CC(=Nc2ccc3c(c2)Cc2cc(Br)ccc2-3)O1 [Compound 408380]
Activity 2.5 uM: 2.28 | Activity 10 uM: 4.36

Br.CCCCCCCCCCCCCCCC[N+](C)(C)CCN.[Br-] [Compound 297156]
Activity 2.5 uM: 1.08 | Activity 10 uM: 5.15

COc1cc(NC(=O)c2cc3ccccc3cc2O)c(OC)cc1Cl [Compound 73118]
Activity 5 uM: 8.006 | Activity 10 uM: 10.008

C(C[P+](c1ccccc1)(c1ccccc1)c1ccccc1)=C(c1ccccc1)c1ccccc1 [Compound 135741]
Activity 5 uM: 8.605 | Activity 10 uM: 7.226

Nc1ccc(N=Nc2ccccc2Cl)c(N)n1 [Compound 106208]
Activity 5 uM: 1.8 | Activity 10 uM: 4.3

FC(F)(Sc1ccccn1)c1nc2ccccc2o1 [Compound 691256]
Activity 5 uM: 4.563 | Activity 10 uM: 5.7865

Cc1c2c(c(C)c3c1C(=O)c1cc4c(cc1C3=O)OCO4)OC(C)(C)O2 [Compound 604868]
Activity 2.5 uM: 0.86 | Activity 10 uM: 5.36

O=C1C(Cl)=C(c2ccc([N+](=O)[O-])cc2)C(=O)c2c(O)cccc21 [Compound 656076]
Activity 2.5 uM: 4.6 | Activity 10 uM: 17.27

CC(=O)Oc1cc2c(c3ccc4ccccc4c13)CCc1ccccc1-2 [Compound 407658]
Activity 2.5 uM: 1.57 | Activity 10 uM: 5.17

CC(=O)OCC1OC(n2nnc(CCl)c2CCl)C(OC(C)=O)C(OC(C)=O)C1OC(C)=O (centres unmarked) [Compound 268393]
Activity 2.5 uM: 0.71

CCC[CH2][Sn]1([CH2]CCC)[O]CC2(CCCCC2)C[O]1 [Compound 194646]
Activity 2.5 uM: 8.08 | Activity 10 uM: 6.24

O=C(Nc1ccccc1)c1cc(Cl)ccc1O [Compound 402600]
Activity 2.5 uM: 1.14 | Activity 10 uM: 4.82

CCOC(=O)c1cnc(SCc2ccccc2)nc1N [Compound 72266]
Activity 5 uM: 2.946 | Activity 10 uM: 3.233

CCCCCCCCCCCCCCCC[N+](C)(C)CCCCCC(=O)OC.[Br-] [Compound 26847]
Activity 2.5 uM: 1.83 | Activity 10 uM: 8.15

CC(C)[Si]1(C(C)C)OCC2OC(N3C(=O)NC(=O)C[C@@H]3C(O)c3ccccc3)CC2O[Si](C(C)C)(C(C)C)O1 (some centres unmarked) [Compound 680834]
Activity 2.5 uM: 0.76 | Activity 10 uM: 4.25

O=C(OCCc1ccccc1)c1ccccc1O [Compound 72035]
Activity 5 uM: 3.275 | Activity 10 uM: 3.8265

Cc1ccc(S(=O)(=O)n2c3c(c4ccccc42)CCN2C(=O)C(S(=O)(=O)c4ccccc4)=CCC32)cc1 (centres unmarked) [Compound 665910]
Activity 2.5 uM: 0.72 | Activity 10 uM: 4.69

CC(C)(C)CC(C)(C)c1ccc(OCCOc2ccc(C(=O)Nc3ccc([N+](=O)[O-])cc3)cc2)cc1 [Compound 151119]
Activity 2.5 uM: 0.72 | Activity 10 uM: 6.62

Cc1ccc(C2=Nc3cccc4cccc(c34)N2)cc1 [Compound 657189]
Activity 2.5 uM: 2.65 | Activity 10 uM: 3.16

O=[N+]([O-])c1ccccc1N/N=C\c1c[nH]c2ccccc12 [Compound 135854]
Activity 2.5 uM: 3.56 | Activity 10 uM: 5.75

Cc1cc2c(C(C)C)c(O)c(O)c(C=Nc3ccccc3[N+](=O)[O-])c2c(O)c1-c1c(C)cc2c(C(C)C)c(O)c(O)c(C=Nc3ccccc3[N+](=O)[O-])c2c1O [Compound 408711]
Activity 2.5 uM: 1.47 | Activity 10 uM: 21.88

CCCCCCCN1C(=O)C(O)(c2ccc(C3(O)C(=O)N(CCCCCCC)c4ccccc43)s2)c2ccccc21 (centres unmarked) [Compound 671896]
Activity 2.5 uM: 0.85 | Activity 10 uM: 4.31

CCCCCCN(CCCCCC)C(=S)N/N=C(\C)c1ccccn1 [Compound 647131]
Activity 2.5 uM: 1.96 | Activity 10 uM: 17.42

O=Cc1c(-c2ccccc2)nc2sc(-c3ccc4c(c3)OCO4)nn12 [Compound 602807]
Activity 2.5 uM: 2.08 | Activity 10 uM: 3.12

CCCCCCNc1nc(N2CCOCC2)c2[nH]c(NCCCCCC)nc2n1 [Compound 401304]
Activity 2.5 uM: 1.04 | Activity 10 uM: 43.11

CN(C)c1ccc(N=Nc2ccc(Cl)c(Cl)c2)cc1 [Compound 170589]
Activity 2.5 uM: 3.81 | Activity 10 uM: 6.57

CC(C)(C)NC/C(=C\c1ccccc1)C(=O)c1ccccc1 [Compound 109156]
Activity 5 uM: 6.2 | Activity 10 uM: 9.1

CCCN(CCC)N=Nc1c(-c2ccccc2)n[nH]c1-c1ccccc1 [Compound 136886]
Activity 5 uM: 2.5 | Activity 10 uM: 28.5

Cl.Nc1cc2ccccc2c2c1ccc1ccccc12 [Compound 97681]
Activity 2.5 uM: 1.17 | Activity 10 uM: 8.98

Cc1ccc2c(O)c3c(cc2c1O)C(=O)c1ccccc1C3=O [Compound 374924]
Activity 2.5 uM: 2.1 | Activity 10 uM: 6.35

CCCCCCCCCCCc1n(Cc2ccccc2)c2ccccc2[n+]1C.[Br-] [Compound 148342]
Activity 5 uM: 14.51 | Activity 10 uM: 19.7555

S=C(NCCc1ccccn1)N/N=C/c1ccccn1 [Compound 670779]
Activity 2.5 uM: 2.57 and 2.721 | Activity 10 uM: 6.67 and 8.739

CC(C)[N+](=C1O[B-](c2ccccc2)(c2ccccc2)O[B-]1(c1ccccc1)[C+]1CCCCC1)C(C)C (centres unmarked) [Compound 344506]
Activity 2.5 uM: 0.69 | Activity 10 uM: 5.08

C/C(=N/NC(=S)Nc1cccc(Cl)c1)c1cccc(/C(C)=N\NC(=S)Nc2cccc(Cl)c2)n1 [Compound 668484]
Activity 2.5 uM: 1.59 | Activity 10 uM: 3.57

O=C1c2ccccc2C(=O)c2c1oc1c2ccc2ccccc21 [Compound 281986]
Activity 2.5 uM: 3.11 | Activity 10 uM: 3.37

CC[N+](CC)=c1ccc2nc3c(cc(N)c4ccccc43)oc-2c1.[Cl-] [Compound 146184]
Activity 2.5 uM: 3.13

CC[CH2][Pb]([CH2]CC)([CH2]CC)[O]C(C)=O [Compound 102516]
Activity 10 uM: 3.4

O=c1c([Se]c2coc3ccccc3c2=O)coc2ccccc12 [Compound 652531]
Activity 2.5 uM: 0.71 | Activity 10 uM: 12.9

Br[CH](Br)[Hg][c]1ccccc1 [Compound 286678]
Activity 2.5 uM: 1.72
